Structure (SMILES)	melting point [°C]
COc1ccc(Cc2cc3cccc(-c4cccc(C(=O)O)c4)c3o2)cc1OC	122 to 123
Fc1ccc(Cn2c(OC3CCN(Cc4ccccc4)CC3)nc3cncnc32)cc1	117
CC=CC(=O)CS(=O)(=O)C(c1ccc(Cl)cc1)c1ccc(Cl)cc1	114 to 116
OCC1OC(n2c(Cl)c(-c3ccsc3)c3cc(Cl)c(Cl)cc32)C(O)C1O (stereo not drawn)	152 to 153
CCCCCCCCCCCCOc1ccc(C(=O)O)c(O)c1	98 to 100
Cc1cc(C)c(Nc2nc(N(C)C)ncc2S(=O)(=O)c2cccc(OCc3ccccc3)c2)c(C)c1	52 to 58
COC(=O)CC1Cc2ccc(O)cc2NC1=O (stereo not drawn)	178 to 180
Cc1ccccc1C=C(C#N)C#N	105 to 106
Clc1c2c(nc3ccccc13)CCCNC2	127
CC1(C)SC(c2ccncc2)NC1C(=O)O (stereo not drawn)	149 to 151
Cc1ccc(C2CC(=O)OC(=O)C2)cc1	160 to 162
CC(C)(C)ONC(=O)n1cc(C(=O)C2CSC(c3cccnc3)N2)c2ccccc21 (stereo not drawn)	101 to 103
Cc1nc(N)nc(N)c1-c1ccc(F)cc1F	291 to 296
CN(C)C(=O)c1nc2n(n1)-c1ccc(Cl)cc1C(c1ccccc1)=NC2	135 to 137
CS(=O)(=O)c1ccc(-c2cc(=O)[nH]c(C(F)(F)F)c2-c2ccc(F)cc2)cc1	232 to 242
COc1ccc(C(=O)NCc2cccc3c2CN(C2CCC(=O)NC2=O)C3=O)cc1 (stereo not drawn)	289 to 291
CC(=O)c1ccc(C(=O)CCl)s1	94 to 95
CC(=O)OCC1CCn2c(c(C3=C(c4cccc(C(F)(F)F)c4)C(=O)OC3=O)c3ccccc32)C1 (stereo not drawn)	176 to 177
CCN(CC)C(=O)Oc1cc(-c2ccccn2)nc2ccccc12	100
NS(=O)(=O)c1ccc(-n2nc(C(F)(F)F)cc2-c2ccc(-c3cscn3)c(F)c2)cc1F	196 to 198
COc1cc(C=O)ccc1OCc1nc(N2CCCCC2)sc1C	80 to 81

Structure (SMILES)	melting point [°C]
CCc1csc(CCc2ccc(NC(=O)/C=C/c3cnn(C)c3-c3ccc(F)cc3)cc2)n1	200 to 201
CC[C@@]12C[C@@](C)(O)[C@](O)(c3ccccc3)C[C@H]1CCc1cc(OCC(=O)NCCCC#N)ccc12	185 to 186
Cc1cc(C)c(O)c(C(CCCC(c2cc(C)cc(C)c2O)c2cc(C)cc(C)c2O)c2cc(C)cc(C)c2O)c1	236 to 242
CCOC(=O)c1cn2c(n1)C=NC=C1C=CCC=C12	134 to 135
O=c1ccoc2ccc(F)cc12	165 to 168
Cc1ccccc1C(=O)NC(n1cncn1)C(Cl)(Cl)CCl (stereo not drawn)	133 to 137
COC(=O)COc1cccc2c(CCSC(c3ccc(Cl)cc3)c3ccc(Cl)cc3)coc12	68 to 69
CCOC(=O)c1c(CC)ncnc1NCCc1ccc(CCO)cc1	68 to 71
O=C(O)c1cccc(-c2cc3c(Nc4cccc(Cl)c4)ncnc3[nH]2)c1	> 300
Cc1cccc(C(=O)NC(C)C)c1NC(=O)c1cc(C(F)(F)F)nn1-c1ncccc1C(F)(F)F	227 to 230
N#Cc1cnn(-c2c(Cl)cc(C(F)(F)F)cc2Cl)c1N	165 to 167
Cc1c2n(c3ccccc13)C(=O)C(Cn1ccnc1C)CC2 (stereo not drawn)	120 to 121
COc1ccccc1COc1ccc2c(c1)C=C(C(=O)O)CCS2(=O)=O	168 to 171
COc1ccc(CSc2cccc(C(=O)Nc3ccc(C#N)cc3)c2)cc1	167 to 169
O=[N+]([O-])c1cccc(C(F)(F)F)c1NCC(O)CO (stereo not drawn)	117
NC(CC(c1ccccc1)c1ccccc1)(C(=O)O)C1CC(C(=O)O)(C(=O)O)C1 (stereo not drawn)	182 to 185
CS(=O)(=O)N1CCN2C(=O)N(c3ccc(C#N)c4ccccc34)C(=O)C2C1 (stereo not drawn)	207 to 216
COC(=O)[C@H]1CC[C@H](n2ccn(-c3ccc(OCc4ccccc4)cc3)c2=O)CC1	183 to 185
CN1CC[C@@H]2CC(=O)c3c(F)cc(F)cc3[C@@H]2C1 (relative stereo)	> 220
FC(F)(F)c1ccc(/C=C/c2nc(COc3cccc(CCCn4ccnn4)c3)co2)cc1	115 to 116
CCOC(=O)c1sc(=O)[nH]c1C(Cl)(Cl)Cl	109 to 110

Results, then the compound that gave them:

melting point [°C]	Structure (SMILES)
148 to 150	CC1CCN(c2c(F)c(N)c3c(=O)c(C(=O)O)cn(C4CC4)c3c2F)CC(C)(C)C1 (stereo not drawn)
74 to 75	C=CCNc1nc(NCC=C)nc(NCCC2CC(C)(C)NC(C)(C)C2)n1
144	O=C(/C=C/c1c(F)cccc1Cl)/C=C/c1c(F)cccc1Cl
131 to 133	COc1ccc2c(c1)c(Cc1cc(=O)n(-c3ccc(C)cc3)[nH]1)c(C)n2C(=O)c1ccc(Cl)cc1
130 to 133	COc1cccc([C@H]2O[C@H](Cc3nc(=O)o[nH]3)C(=O)N(CC(C)(C)C)c3ccc(Cl)cc32)c1OC
> 260	O=C(O)c1cnc2cccc(O)c2c1
238	Nc1ccc(Nc2c(NCc3ccccc3)cc(C(=O)O)cc2S(=O)(=O)Nc2ccc(N)cc2)cc1
105	CCCCc1cccc(=O)n1Cc1ccc(-c2ccccc2-c2nnn[nH]2)cc1
152 to 153	COc1ccc(C2=NOC3(CCOC3=O)C2)cc1OC1CCCC1 (stereo not drawn)
182 to 183	CC#CC(=O)c1c(-c2ccc(F)cc2)nn2c(Cl)cccc12
49 to 51	CCCCOCCCOCCCCCCNCC(O)c1cc(Cl)c(N)c(Cl)c1 (stereo not drawn)
135 to 140	Cn1c(-c2ccc(-c3ccncc3)cc2)cnc1[C@H](Cc1ccccn1)N(C=O)c1cc2cc(Cl)ccc2o1
97 to 100	CCc1cc(-c2ccc(-c3ccnn3C)cc2)ccc1OC
> 220	CSc1nn2c(O)cc(CN3CCN(C)CC3)nc2c1S(=O)(=O)c1ccccc1
146	COC(=O)CCc1cc2nc(Cl)ccc2n1S(=O)(=O)c1ccc2ncsc2c1
138 to 140	CC(C)(C)c1cc(SCN2C(=O)CC(Sc3cc(C(C)(C)C)c(O)c(C(C)(C)C)c3)C2=O)cc(C(C)(C)C)c1O (stereo not drawn)
145 to 147	COC(=O)c1ccc(O)c(C(=O)CC(=O)c2cc(C)ccc2OC)c1
74 to 76	CC(Oc1ccc(-c2cccc(C(N)=O)c2)cc1)C(O)CCc1cccnc1 (stereo not drawn)
193 to 195	CC(=NOCCOc1ccc(CC2OC(=O)N(C(c3ccccc3)(c3ccccc3)c3ccccc3)C2=O)cc1)c1ccc(-c2ccccc2)cc1 (stereo not drawn)
254 to 255	O=C(O)C1=Cc2c(ccc3oc4ccccc4c23)OC1C(F)(F)F (stereo not drawn)
112 to 114	CC(C(=O)OCCO)n1c(-c2ccc(Cl)cc2)nc2cccnc21 (stereo not drawn)
136 to 138	COCCOc1ccc(CCC(=O)NS(=O)(=O)c2ccc(F)cc2)c(Oc2ncc(C(F)(F)F)cc2Cl)c1
155 to 156	CC(=O)OCC1CCCN(C(=O)c2ccc(NC(=O)c3ccccc3C)cc2)c2ccccc21 (stereo not drawn)
166 to 167	O=C(O)CCc1cc(C(c2cc(F)ccc2F)S(=O)(=O)c2ccc(C(F)(F)F)cc2)c(Cl)cn1 (stereo not drawn)
155 to 159	CCCCOc1c(CNC(=O)OC(C)(C)C)n(CC(C)C)c(=O)c2ccc(-c3ccccc3)cc12
139 to 140	NCC(=O)Nc1cccc(C(N)=O)c1

— a melting point compilation (Tetko et al.; mined from patent text by program, amines drawn as free bases though some values may be those of a salt)
